Source: patent US8431523B2, “Oligomeric biosurfactants in dermatocosmetic compositions” (priority 2006, dated 2013)

Tested on: metabolic soluble proteins
Test: CBQCA Protein Quantitation Assay (metabolic soluble protein)
Format: cell-based
Protocol: A first aspect of the present invention is directed to OABs having an ability to increase metabolic soluble proteins by at least about 20%. For purposes of the present invention, metabolic soluble protein is measured using the CBQCA Protein Quantitation Assay from Molecular Probes, Inc. (Eugene, Oreg.). This assay is based on aquinoline-2-carboxaldehyde derivative, which specifically reacts with primary amines to form conjugates capable of electrophoretic or chromatographic analysis. More specifically, in the presence of the cyanide anion, the quinoline-2-carboxaldehyde derivative reacts with primary amines, including those on proteins, and produces a highly-fluorescent emission at 550 nm.

| Molecule | increases metabolic soluble protein (qualitative) | increase metabolic soluble proteins |
| --- | --- | --- |
| Myr-RH-amide [P393] | increases metabolic soluble protein | – |
| CCCCCCCCCCCCCC(=O)N[C@@H](CCCNC(=N)N)C(N)=O [P391, Myr-R-amide] | increases metabolic soluble protein | – |
| Pal-KK-amide [P316] | increases metabolic soluble protein | – |
| Myr-III-amide [P420] | – | at least 20% |
| Pal-RR-amide [P318] | increases metabolic soluble protein | – |
